{
  "source": "patent EP0306846A2",
  "about": "“Synergistic combination comprising a phosphodiesterase inhibitor and a thromboxane-A2 antagonist, and its use or preparation” (Dr. Karl Thomae GmbH, priority 1987, dated 1989)",
  "key": {"[1]": {"conditions": "in combination with Dipyridamol; J. Clin. Invest. 75, 1591-1599 (1985); cited from earlier work"}, "[2]": {"test_system": "Plättchenaggregation im Gesamtblut", "assay": "collagen-induced platelet aggregation in pooled rat whole blood, substances added in vitro", "assay_type": "cell-based, Ratten", "conditions": "collagen 7 µg/ml, read-out: % Hemmung", "method": "Ratten mit einem durchschnittlichen Körpergewicht von 250 bis 300 g wurden mit 60 mg/kg Pentobarbital narkotisiert. Aus der abdominalen Arterie wurde 4,5 ml Blut entnommen und in 0,5 ml Zitrat (3,8 %) gegeben. Das Blut von 3 Ratten wurde jeweils gepoolt und Proben hiervon, die Lösungsmittel, die Einzelsubstanzen oder die zu untersuchende Kombination enthielten, wurden 10 Minuten lang rotiert. Von diesen Proben wurden jeweils 200 µl in Aggregometer-Küvetten gegeben und 5 Minuten lang bei 37°C gerührt. Anschließend wurden 10 µl Collagenlösung (Endkonzentration: 7 µg/ml) zugegeben und zu verschiedenen Zeiten jeweils 10 µl Blut entnommen, welches anschließend mit Formaldehyd fixiert wurde. In diesen Proben wurden die nicht aggregierten Plättchen mit einem Ultra-Flo 100 (Becton-Dickinson) bestimmt. Die nachfolgende Tabelle enthält die gefundenen Werte: […]"}, "[3]": {"test_system": "Plättchenaggregation im Gesamtblut", "assay": "collagen-induced platelet aggregation in whole blood of rats after administration of the substances (ex vivo)", "set-up": "species or system Ratten", "conditions": "rat, versus vehicle controls", "method": "Ratten mit einem durchschnittlichen Körpergewicht von 250 bis 300 g wurden mit 60 mg/kg Pentobarbital narkotisiert. Aus der abdominalen Arterie wurde 4,5 ml Blut entnommen und in 0,5 ml Zitrat (3,8 %) gegeben. Das Blut von 3 Ratten wurde jeweils gepoolt und Proben hiervon, die Lösungsmittel, die Einzelsubstanzen oder die zu untersuchende Kombination enthielten, wurden 10 Minuten lang rotiert. Von diesen Proben wurden jeweils 200 µl in Aggregometer-Küvetten gegeben und 5 Minuten lang bei 37°C gerührt. Anschließend wurden 10 µl Collagenlösung (Endkonzentration: 7 µg/ml) zugegeben und zu verschiedenen Zeiten jeweils 10 µl Blut entnommen, welches anschließend mit Formaldehyd fixiert wurde. In diesen Proben wurden die nicht aggregierten Plättchen mit einem Ultra-Flo 100 (Becton-Dickinson) bestimmt. Die nachfolgende Tabelle enthält die gefundenen Werte:\nDesweiteren wurde die synergistische Wirkung auf die Plättchenaggregation im Gesamtblut für die Kombination, bestehen aus Pimobendan (Substanz C) und Substanz B in Vergleich zu den Einzelverbindungen wie folgt untersucht: Ratten mit einem durchschnittlichen Körpergewicht von 250 bis 300 g Körpergewicht wurden 5 mg/kg Substanz C und 0,5 mg/kg Substanz B oder die Kombination im Vergleich zu Kontrollen, welche nur das Vehikel appliziert bekamen, gegeben. […]"}},
  "data": [
    {"smiles": "O=C(O)c1ccc(OCCn2ccnc2)cc1", "note": "[Dazoxiben, 4-[2-(1H-Imidazol-1-yl)-ethoxy]benzoesäure]", "values": [
      {"measurement": "Einfluß auf die antithrombotische Wirkung des PDE-Hemmers", "setting": "[1]", "value": "keinen verbessernden Einfluß"}
    ]},
    {"smiles": "CCOc1nc(N2CCNCC2)nc(N2CC[S+]([O-])CC2)c1[N+](=O)[O-]", "note": "[Substanz A, 6-Äthoxy-5-nitro-4-(1-oxidothiomorpholino)-2-piperazino-pyrimidin]", "values": [
      {"measurement": "inhibition at 0.03 µM", "setting": "[2]; 0,03 µMol/l", "value": 4, "unit": "%"}
    ]},
    {"smiles": "O=C(O)CCCc1ccc2c(c1)CC(NS(=O)(=O)c1ccc(Cl)cc1)C2", "note": "(stereo not drawn) [Substanz B, 4-[2-p-Chlorbenzolsulfonamido-indan-5-yl]-buttersäure]", "values": [
      {"measurement": "inhibition at 0.1 µM", "setting": "[2]; 0,10 µMol/l", "value": 3, "unit": "%"},
      {"measurement": "inhibition at 0.3 µM", "setting": "[2]; 0,30 µMol/l", "value": 19, "unit": "%"},
      {"measurement": "% Hemmung", "setting": "[3]; dose 0,5 mg/kg", "value": 59, "unit": "%"}
    ]},
    {"smiles": "COc1ccc(-c2nc3ccc(C4=NNC(=O)CC4C)cc3[nH]2)cc1", "note": "(stereo not drawn) [Substanz C, 2-(4-Methoxy-phenyl)-5(6)-(5-methyl-3-oxo-4,5-dihydro-2H-6-pyridazinyl)-benzimidazol, reference compound]", "values": [
      {"measurement": "% Hemmung", "setting": "[3]; dose 5,0 mg/kg", "value": -1, "unit": "%"}
    ]}
  ]
}
